Results as given in ChEMBL document CHEMBL1142430, “Acremine G, dimeric metabolite from cultures of Acremonium byssoides A20” (J Nat Prod, 2008).

How the values were obtained:
NCI-H460 = assay: Cytotoxicity against human H460 cells; format: functional, cell-based
Plasmopara viticola = assay: Inhibition of germination of sporangia of Plasmopara viticola at 1 mM; format: functional

## CC(C)(O)/C=C/C1=CC(=O)[C@](C)(O)C[C@@H]1O [ACREMINE A]
NCI-H460
  IC50: > 100 µM
Plasmopara viticola
  inhibition at 1000 µM: 58.2%

## CC1=CC2c3cc(O)c(C)cc3OC3(C1)C(=O)C(C)=CC(=O)C23/C=C/C(C)(C)O (racemic)
NCI-H460
  IC50: 48 µM
Plasmopara viticola
  inhibition at 1000 µM: 72.5%

## CC(C)(O)/C=C/C1=CC(=O)[C@](C)(O)CC1=O [ACREMINE B]
NCI-H460
  IC50: 36 µM
Plasmopara viticola
  inhibition at 1000 µM: 57.7%
